Measurements from PMC2931804 (Clinical cancer research : an official journal of the …, 2010).
Like-named read-outs stand apart in the source and are kept apart here.

[1] = DL1 500 mg twice daily × 3 + sLV5FU2, 1st cycle, n = 3
[2] = DL1 500 mg twice daily × 3 + sLV5FU2, Any cycle, n = 3
[3] = DL1 600 mg once daily × 3 + sLV5FU2, 1st cycle, n = 3
[4] = DL1 600 mg once daily × 3 + sLV5FU2, Any cycle, n = 3
[5] = DL2 600 mg twice daily × 3 + sLV5FU2, 1st cycle, n = 6
[6] = DL2 600 mg twice daily × 3 + sLV5FU2, Any cycle, n = 6
[7] = DL2 800 mg once daily × 3 + sLV5FU2, 1st cycle, n = 3
[8] = DL2 800 mg once daily × 3 + sLV5FU2, Any cycle, n = 3
[9] = DL3 800 mg twice daily × 3 + sLV5FU2, 1st cycle, n = 3
[10] = DL3 800 mg twice daily × 3 + sLV5FU2, Any cycle, n = 3

In the case of `O=C(CCCCCCC(=O)Nc1ccccc1)NO` [vorinostat, suberoylanilide hydroxamic acid], the Dose-limiting toxicities (800 mg vorinostat twice-daily dose level + sLV5FU2) is reported as “Grade 3 fatigue and mucositis”, the Dose-limiting toxicities (2,000 mg vorinostat once-daily dose level + sLV5FU2) is reported as “Grade 3 fatigue, and hand and foot syndrome” and the “ATE, treatment-related, patients (G2/G3/G4)” value (“ATE, treatment-related” for short) [1] is reported as 0/0/0. For the same compound, the “Anemia, treatment-related, patients (G2/G3/G4)” value (shortened to “Anemia, treatment-related”) [1] was 0/0/0, the “Anorexia, treatment-related, patients (G2/G3/G4)” value (shortened to “Anorexia, treatment-related”) [1] was 0/0/0 and the “Chelitis, treatment-related, patients (G2/G3/G4)” value (“Chelitis, treatment-related” for short) [1] was 0/0/0. The “Dehydration, treatment-related, patients (G2/G3/G4)” value (“Dehydration, treatment-related” below) [1] was 0/0/0, the “Diarrhea, treatment-related, patients (G2/G3/G4)” value (from here on “Diarrhea, treatment-related”) [1] was 1/0/0 and the “Esophagitis, treatment-related, patients (G2/G3/G4)” value (“Esophagitis, treatment-related” below) [1] was 0/0/0. The “Fatigue, treatment-related, patients (G2/G3/G4)” value (from here on “Fatigue, treatment-related”) [1] was 2/0/0, the “Fever, treatment-related, patients (G2/G3/G4)” value (“Fever, treatment-related” for short) [1] was 0/0/0 and the “Headache, treatment-related, patients (G2/G3/G4)” value (“Headache, treatment-related” for short) [1] was 0/0/0. For the same compound, the “Mucositis, treatment-related, patients (G2/G3/G4)” value (“Mucositis, treatment-related” below) [1] was 0/0/0, the “Nausea, treatment-related, patients (G2/G3/G4)” value (from here on “Nausea, treatment-related”) [1] was 1/0/0 and the “Neutropenia, treatment-related, patients (G2/G3/G4)” value (“Neutropenia, treatment-related” below) [1] was 0/0/0. For the same compound, the “Thrombocytopenia, treatment-related, patients (G2/G3/G4)” value (“Thrombocytopenia, treatment-related” below) [1] was 0/0/0, the “VTE, treatment-related, patients (G2/G3/G4)” value (“VTE, treatment-related” for short) [1] was 0/0/0 and the “Vomiting, treatment-related, patients (G2/G3/G4)” value (“Vomiting, treatment-related” for short) [1] was 1/0/0. For the same compound, the “ATE, treatment-related” value [2] was 0/0/0, the “Anemia, treatment-related” value [2] was 0/0/0 and the “Anorexia, treatment-related” value [2] was 2/0/0. The “Chelitis, treatment-related” value [2] was 0/0/0, the “Dehydration, treatment-related” value [2] was 0/0/0 and the “Diarrhea, treatment-related” value [2] was 1/0/0. For the same compound, the “Esophagitis, treatment-related” value [2] was 1/0/0, the “Fatigue, treatment-related” value [2] was 3/0/0 and the “Fever, treatment-related” value [2] was 1/0/0. The “Headache, treatment-related” value [2] was 0/0/0, the “Mucositis, treatment-related” value [2] was 1/0/0 and the “Nausea, treatment-related” value [2] was 2/0/0. The “Neutropenia, treatment-related” value [2] was 0/0/0, the “Thrombocytopenia, treatment-related” value [2] was 0/0/0 and the “VTE, treatment-related” value [2] was 0/0/0. For the same compound, the “Vomiting, treatment-related” value [2] was 1/0/0, the “Anemia, treatment-related” value [3] was 1/0/0 and the “Anorexia, treatment-related” value [3] was 1/0/0. For the same compound, the “DVT/PE, treatment-related, patients (G2/G3/G4)” value (from here on “DVT/PE, treatment-related”) [3] was 0/0/0, the “Dehydration, treatment-related” value [3] was 0/0/0 and the “Diarrhea, treatment-related” value [3] was 0/0/0. The “Fatigue, treatment-related” value [3] was 1/0/0, the “GI bleed, treatment-related, patients (G2/G3/G4)” value (from here on “GI bleed, treatment-related”) [3] was 0/0/0 and the “Hand and Foot, treatment-related, patients (G2/G3/G4)” value (“Hand and Foot, treatment-related” below) [3] was 0/0/0. For the same compound, the “Infection, treatment-related, patients (G2/G3/G4)” value (“Infection, treatment-related” below) [3] was 0/0/0, the “Mucositis, treatment-related” value [3] was 0/0/0 and the “Nausea, treatment-related” value [3] was 1/0/0. For the same compound, the “Neutropenia, treatment-related” value [3] was 0/0/0, the “Thrombocytopenia, treatment-related” value [3] was 1/0/0 and the “Vomiting, treatment-related” value [3] was 0/0/0. The “Weight Loss, treatment-related, patients (G2/G3/G4)” value (“Weight Loss, treatment-related” below) [3] was 0/0/0, the “Anemia, treatment-related” value [4] was 1/0/0 and the “Anorexia, treatment-related” value [4] was 1/0/0. The “Creatinine, treatment-related, patients (G2/G3/G4)” value [4] was 1/0/0, the “DVT/PE, treatment-related” value [4] was 0/0/0 and the “Dehydration, treatment-related” value [4] was 1/0/0. For the same compound, the “Diarrhea, treatment-related” value [4] was 0/1/0, the “Fatigue, treatment-related” value [4] was 2/0/0 and the “GI bleed, treatment-related” value [4] was 0/0/0. The “Hand and Foot, treatment-related” value [4] was 0/0/0, the “Infection, treatment-related” value [4] was 0/0/0 and the “Mucositis, treatment-related” value [4] was 2/0/0. For the same compound, the “Nausea, treatment-related” value [4] was 1/0/0, the “Neutropenia, treatment-related” value [4] was 0/0/0 and the “Thrombocytopenia, treatment-related” value [4] was 1/0/0. For the same compound, the “Vomiting, treatment-related” value [4] was 1/0/0, the “Weight Loss, treatment-related” value [4] was 0/0/0 and the DLT (DL1 (500 mg twice daily × 3) and DL2 (600 mg twice daily), three patients each) was “without any DLT”. For the same compound, the “ATE, treatment-related” value [5] was 0/0/0, the “Anemia, treatment-related” value [5] was 1/0/0 and the “Anorexia, treatment-related” value [5] was 2/0/0. For the same compound, the “Chelitis, treatment-related” value [5] was 0/0/0, the “Dehydration, treatment-related” value [5] was 0/0/0 and the “Diarrhea, treatment-related” value [5] was 1/0/0. The “Esophagitis, treatment-related” value [5] was 0/0/0, the “Fatigue, treatment-related” value [5] was 3/0/0 and the “Fever, treatment-related” value [5] was 0/0/0. For the same compound, the “Headache, treatment-related” value [5] was 0/0/0, the “Mucositis, treatment-related” value [5] was 0/0/0 and the “Nausea, treatment-related” value [5] was 3/0/0. For the same compound, the “Neutropenia, treatment-related” value [5] was 0/0/0, the “Thrombocytopenia, treatment-related” value [5] was 0/1/0 and the “VTE, treatment-related” value [5] was 0/0/0. For the same compound, the “Vomiting, treatment-related” value [5] was 1/0/0, the “ATE, treatment-related” value [6] was 0/0/0 and the “Anemia, treatment-related” value [6] was 1/1/0. For the same compound, the “Anorexia, treatment-related” value [6] was 2/0/0, the “Chelitis, treatment-related” value [6] was 0/0/0 and the “Dehydration, treatment-related” value [6] was 2/0/0. The “Diarrhea, treatment-related” value [6] was 1/0/0, the “Esophagitis, treatment-related” value [6] was 0/0/0 and the “Fatigue, treatment-related” value [6] was 3/1/0. For the same compound, the “Fever, treatment-related” value [6] was 0/0/1, the “Headache, treatment-related” value [6] was 0/1/0 and the “Mucositis, treatment-related” value [6] was 0/0/0. The “Nausea, treatment-related” value [6] was 3/0/0, the “Neutropenia, treatment-related” value [6] was 0/0/0 and the “Thrombocytopenia, treatment-related” value [6] was 0/0/1. For the same compound, the “VTE, treatment-related” value [6] was 0/0/0, the “Vomiting, treatment-related” value [6] was 1/0/0 and the “Patients with DLT” value (DL2 600 mg twice daily × 3 + sLV5FU2, six patients) was “None and without any DLT”. The “Anemia, treatment-related” value [7] was 1/0/0, the “Anorexia, treatment-related” value [7] was 1/0/0 and the “Creatinine, treatment-related, patients (G2/G3/G4)” value [7] was 1/0/0. For the same compound, the “DVT/PE, treatment-related” value [7] was 0/0/0, the “Dehydration, treatment-related” value [7] was 0/0/0 and the “Diarrhea, treatment-related” value [7] was 0/0/0. The “Fatigue, treatment-related” value [7] was 1/0/0, the “GI bleed, treatment-related” value [7] was 0/0/0 and the “Hand and Foot, treatment-related” value [7] was 0/0/0. For the same compound, the “Infection, treatment-related” value [7] was 0/0/0, the “Mucositis, treatment-related” value [7] was 0/0/0 and the “Nausea, treatment-related” value [7] was 1/0/0. The “Neutropenia, treatment-related” value [7] was 0/0/0, the “Thrombocytopenia, treatment-related” value [7] was 1/0/0 and the “Vomiting, treatment-related” value [7] was 0/0/0. For the same compound, the “Weight Loss, treatment-related” value [7] was 0/0/0, the “Anemia, treatment-related” value [8] was 1/0/0 and the “Anorexia, treatment-related” value [8] was 2/0/0. The “DVT/PE, treatment-related” value [8] was 0/0/0, the “Dehydration, treatment-related” value [8] was 0/0/0 and the “Diarrhea, treatment-related” value [8] was 1/0/0. The “Fatigue, treatment-related” value [8] was 2/0/0, the “GI bleed, treatment-related” value [8] was 0/0/0 and the “Hand and Foot, treatment-related” value [8] was 0/0/0. The “Infection, treatment-related” value [8] was 0/0/0, the “Mucositis, treatment-related” value [8] was 0/0/0 and the “Nausea, treatment-related” value [8] was 2/0/0. The “Neutropenia, treatment-related” value [8] was 0/0/0, the “Thrombocytopenia, treatment-related” value [8] was 1/0/0 and the “Vomiting, treatment-related” value [8] was 0/0/0. The “Weight Loss, treatment-related” value [8] was 0/0/0, the “ATE, treatment-related” value [9] was 0/0/0 and the “Anemia, treatment-related” value [9] was 0/0/0. For the same compound, the “Anorexia, treatment-related” value [9] was 1/0/0, the “Chelitis, treatment-related” value [9] was 1/0/0 and the “Dehydration, treatment-related” value [9] was 2/0/0. The “Diarrhea, treatment-related” value [9] was 1/0/0, the “Esophagitis, treatment-related” value [9] was 1/0/0 and the “Fever, treatment-related” value [9] was 0/0/0. For the same compound, the “Headache, treatment-related” value [9] was 0/0/0, the “Nausea, treatment-related” value [9] was 0/0/0 and the “Neutropenia, treatment-related” value [9] was 0/0/0. The “Thrombocytopenia, treatment-related” value [9] was 3/0/0, the “VTE, treatment-related” value [9] was 0/0/0 and the “Vomiting, treatment-related” value [9] was 0/0/0. The “ATE, treatment-related” value [10] was 0/0/1, the “Anemia, treatment-related” value [10] was 0/2/0 and the “Anorexia, treatment-related” value [10] was 2/0/0. For the same compound, the “Chelitis, treatment-related” value [10] was 2/0/0, the “Dehydration, treatment-related” value [10] was 2/0/0 and the “Diarrhea, treatment-related” value [10] was 0/1/0. The “Esophagitis, treatment-related” value [10] was 1/0/0, the “Fatigue, treatment-related” value [10] was 1/2/0 and the “Fever, treatment-related” value [10] was 0/0/0. For the same compound, the “Headache, treatment-related” value [10] was 0/0/0 and the “Mucositis, treatment-related” value [10] was 2/1/1.
